Assay [1] relates to low-molecular-weight heparin, Fragmine® (anti-Xa activity, factor Xa). Kind of assay: Evaluation of neutralization of low-molecular-weight heparin by enzyme substrates (anti-Xa activity). Format: biochemical. From the text: (§1) Before referring to the diagrams of the figures, the evaluation method used to quantify the neutralizing effect of the proteolytic enzyme substrates with respect to the glycosaminoglycans in a blood sample, and in particular a plasma, will be described. This evaluation method makes it possible to use both unfractionated heparins and low-molecular-weight heparins. In addition, the method endeavors to test the activity of factor Xa, located at the crossroads of two enzymatic cascades resulting in the formation of thrombin. Moreover, antithrombin, which is a natural inhibitor of thrombin generation, controls the reaction. As soon as it appears, factor Xa couples to its natural substrate, prothrombin, so as to form thrombin. The heparin contained in the sample forms, itself, a complex with antithrombin, which complex promotes the inhibition of factor Xa.
Thus, a chromogenic substrate based on para-nitroaniline, which factor Xa hydrolyzes, is used and the release of the para-nitroaniline, which can be measured optically, is then inversely proportional to the concentration of heparin present in the medium. A measurement of the anti-Xa activity is thus deduced therefrom.
More specifically, the percentage neutralization by the substrate is determined as being the ratio of the difference in the variation in anti-Xa activity in the medium containing the physiological saline and in the medium containing the substrate, between two heparin concentrations, and only the variation in activity in the medium containing the physiological saline, between the same two heparin concentrations, this ratio being multiplied by 100 in order to obtain the result as percentage neutralization.
The percentage neutralization can also be written more compactly: 100×(1−ΔA1/ΔA2), wherein ΔA1 corresponds to the variation in activity in the presence of substrate and ΔA2 to the variation in the presence of physiological saline. Thus, the parallel measurement of the variation in the presence of physiological saline makes it possible to establish the reference in each series of measurements.
Still in this first part of the description, the abovementioned evaluation method was implemented with a low-molecular-weight heparin, Fragmine®.
The results of the percentage neutralization of this heparin for the three substrate variants described above, V(1), V(2) and V(3), have been reported in the table below.

The subject of assay [2] is unfractionated calcium heparin Calciparine® (anti-Xa activity, factor Xa). Kind of assay: Evaluation of neutralization of unfractionated heparin by enzyme substrates (anti-Xa activity, para-nitroaniline chromogenic substrate). Format: biochemical. The note with it: FIG. 1, qualitative.
From the text: as §1
Thus, a chromogenic substrate based on para-nitroaniline, which factor Xa hydrolyzes, is used and the release of the para-nitroaniline, which can be measured optically, is then inversely proportional to the concentration of heparin present in the medium. […]
In this first example, the heparin used is an unfractionated calcium heparin sold under the brand name: “Calciparine®”. According to the evaluation method, the anti-Xa activity is recorded and transferred onto the y-axis, as a function of the heparin concentration of the medium. […]

Take EtM-VR-Rhod110-Ac [V(1)]: the percentage neutralization in assay [1] (Fragmine® 0.42 IU/ml) stood at 10%; in assay [1] (Fragmine® 0.83 IU/ml) it was 12%; in assay [1] (Fragmine® 1.25 IU/ml), 13%; in assay [1] (Fragmine® 1.67 IU/ml), 15%.
In the case of Z-GGR-AMC, in assay [2], the “effect of substrate with respect to heparin (curve compared with physiological saline)” value is “no notable effect with respect to heparin”.

The values above are taken from patent publication US20130023002A1, “USE OF A SUBSTRATE IN A METHOD FOR MEASURING THE ACTIVITY OF AVAILABLE PROTEOLYTIC ENZYMES” (priority 2011, published 2013).
